In ChEMBL document CHEMBL5634096, “Design, synthesis and bioevaluation of PI3Kα-selective inhibitors as potential colorectal cancer drugs” (Eur J Med Chem, 2023):
The source made the active and inactive calls. The rule behind the calls is not given here.

What was measured:
HCT-116 [1] = assay: Induction of cell cycle arrest in human HCT-116 cells assessed as increase in accumulation of cells at G1/G0 phase at 3 to 12 uM incubated for 48 hrs by PI staining based flow cytometry analysis (reference value: 36.6 %); format: functional; conditions: dose 3-12 µM
HOS = assay: Antiproliferative activity against human HOS cells assessed as reduction in cell viability at 10 uM incubated for 24 to 48 hrs by CCK-8 assay; format: functional, cell-based; conditions: time lower […], time upper 48.0 hrs
[2] = target: Receptor-type tyrosine-protein kinase FLT3 (Homo sapiens) (UniProt P36888); assay: Inhibition of human FLT3 at 1 uM
TE-1 = assay: Antiproliferative activity against human TE-1 cells assessed as reduction in cell viability at 10 uM incubated for 24 to 48 hrs by CCK-8 assay; format: functional, cell-based; conditions: time lower […], time upper 48.0 hrs
[3] = target: Phosphatidylinositol 4,5-bisphosphate 3-kinase catalytic subunit alpha isoform (Homo sapiens, UniProt P42336); assay: Inhibition of PI3Kalpha (unknown origin) by ADP-Glo luminescent kinase assay
Sequence of Phosphatidylinositol 4,5-bisphosphate 3-kinase catalytic subunit alpha isoform (P42336 whole entry, canonical isoform): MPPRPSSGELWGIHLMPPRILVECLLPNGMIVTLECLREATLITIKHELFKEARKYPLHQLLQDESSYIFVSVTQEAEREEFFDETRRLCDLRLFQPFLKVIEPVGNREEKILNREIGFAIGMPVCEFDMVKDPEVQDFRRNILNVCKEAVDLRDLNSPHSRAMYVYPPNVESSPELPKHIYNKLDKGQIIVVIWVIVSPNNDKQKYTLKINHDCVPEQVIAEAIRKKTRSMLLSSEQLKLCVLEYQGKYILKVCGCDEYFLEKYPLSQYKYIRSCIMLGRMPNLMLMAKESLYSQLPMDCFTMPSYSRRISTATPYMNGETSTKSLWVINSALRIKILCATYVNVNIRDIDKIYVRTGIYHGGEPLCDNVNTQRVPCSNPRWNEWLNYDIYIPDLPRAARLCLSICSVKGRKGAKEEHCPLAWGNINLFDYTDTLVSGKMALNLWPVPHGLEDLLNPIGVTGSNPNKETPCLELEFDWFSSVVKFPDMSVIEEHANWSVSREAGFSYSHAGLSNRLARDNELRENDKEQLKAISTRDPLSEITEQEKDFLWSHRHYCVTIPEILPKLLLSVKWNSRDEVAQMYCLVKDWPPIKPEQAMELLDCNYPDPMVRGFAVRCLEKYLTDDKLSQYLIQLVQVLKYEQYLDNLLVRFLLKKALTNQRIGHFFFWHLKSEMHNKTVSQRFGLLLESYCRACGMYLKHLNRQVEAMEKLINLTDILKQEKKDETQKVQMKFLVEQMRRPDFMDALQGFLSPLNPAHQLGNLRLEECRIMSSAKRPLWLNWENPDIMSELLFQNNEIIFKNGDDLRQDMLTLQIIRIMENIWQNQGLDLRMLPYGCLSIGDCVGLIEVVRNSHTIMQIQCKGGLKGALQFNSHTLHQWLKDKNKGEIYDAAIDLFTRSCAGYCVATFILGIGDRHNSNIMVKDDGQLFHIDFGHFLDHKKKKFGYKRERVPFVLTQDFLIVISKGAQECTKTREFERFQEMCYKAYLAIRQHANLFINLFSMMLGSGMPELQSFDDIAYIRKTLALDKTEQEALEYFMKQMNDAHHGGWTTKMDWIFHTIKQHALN

[4] = target: Phosphatidylinositol 4,5-bisphosphate 3-kinase catalytic subunit gamma isoform (Homo sapiens, UniProt P48736); assay: Inhibition of PI3Kgamma (unknown origin) by ADP-Glo luminescent kinase assay
Sequence of Phosphatidylinositol 4,5-bisphosphate 3-kinase catalytic subunit gamma isoform (P48736 whole entry, canonical isoform): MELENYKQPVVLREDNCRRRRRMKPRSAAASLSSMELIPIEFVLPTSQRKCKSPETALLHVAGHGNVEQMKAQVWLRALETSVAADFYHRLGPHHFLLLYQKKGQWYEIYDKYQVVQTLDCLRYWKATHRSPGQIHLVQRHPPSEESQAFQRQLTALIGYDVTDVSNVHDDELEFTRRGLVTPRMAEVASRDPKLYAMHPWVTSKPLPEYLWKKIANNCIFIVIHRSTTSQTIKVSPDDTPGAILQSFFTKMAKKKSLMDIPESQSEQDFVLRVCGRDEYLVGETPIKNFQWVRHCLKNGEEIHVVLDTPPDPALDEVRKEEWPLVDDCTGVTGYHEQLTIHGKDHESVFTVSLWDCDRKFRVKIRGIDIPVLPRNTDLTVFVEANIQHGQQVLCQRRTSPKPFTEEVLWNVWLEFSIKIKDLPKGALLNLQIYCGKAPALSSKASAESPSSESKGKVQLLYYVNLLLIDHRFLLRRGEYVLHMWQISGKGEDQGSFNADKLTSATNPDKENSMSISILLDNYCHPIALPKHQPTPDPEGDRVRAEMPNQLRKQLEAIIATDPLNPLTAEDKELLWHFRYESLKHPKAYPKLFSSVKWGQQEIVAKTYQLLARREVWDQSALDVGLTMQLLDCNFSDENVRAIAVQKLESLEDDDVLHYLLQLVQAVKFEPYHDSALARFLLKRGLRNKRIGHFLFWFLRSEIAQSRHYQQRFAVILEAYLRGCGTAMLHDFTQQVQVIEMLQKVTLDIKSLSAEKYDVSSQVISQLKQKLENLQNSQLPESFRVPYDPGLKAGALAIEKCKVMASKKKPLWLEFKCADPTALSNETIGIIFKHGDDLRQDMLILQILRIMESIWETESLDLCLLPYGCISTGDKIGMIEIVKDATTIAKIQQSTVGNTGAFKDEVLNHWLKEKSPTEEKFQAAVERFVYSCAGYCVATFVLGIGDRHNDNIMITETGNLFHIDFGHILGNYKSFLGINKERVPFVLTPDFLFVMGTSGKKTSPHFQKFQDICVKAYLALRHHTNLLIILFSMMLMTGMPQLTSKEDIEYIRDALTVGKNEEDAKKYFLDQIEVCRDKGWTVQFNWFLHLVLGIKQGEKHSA

HCT-116 [5] = assay: Antiproliferative activity against human HCT-116 cells assessed as reduction in cell viability incubated for 48 hrs by CCK-8 assay; format: functional, cell-based; conditions: dose 20-80 µM
DU-145 = assay: Antiproliferative activity against human DU-145 cells assessed as reduction in cell viability at 10 uM incubated for 24 to 48 hrs by CCK-8 assay; format: functional, cell-based; conditions: time lower […], time upper 48.0 hrs
MKN-45 = assay: Antiproliferative activity against human MKN-45 cells assessed as reduction in cell viability at 10 uM incubated for 24 to 48 hrs by CCK-8 assay; format: functional, cell-based; conditions: time lower […], time upper 48.0 hrs
Cytochrome P450 1A2 = Cytochrome P450 1A2 (Homo sapiens, UniProt P05177); assay: Inhibition of CYP1A2 in human liver microsomes using phenacetin as substrate pre-incubated for 30 mins followed by substrate addition and measured after 15 mins in presence of NADPH by LC/MS analysis; format: ADME, Microsome
Sequence of Cytochrome P450 1A2 (P05177 whole entry): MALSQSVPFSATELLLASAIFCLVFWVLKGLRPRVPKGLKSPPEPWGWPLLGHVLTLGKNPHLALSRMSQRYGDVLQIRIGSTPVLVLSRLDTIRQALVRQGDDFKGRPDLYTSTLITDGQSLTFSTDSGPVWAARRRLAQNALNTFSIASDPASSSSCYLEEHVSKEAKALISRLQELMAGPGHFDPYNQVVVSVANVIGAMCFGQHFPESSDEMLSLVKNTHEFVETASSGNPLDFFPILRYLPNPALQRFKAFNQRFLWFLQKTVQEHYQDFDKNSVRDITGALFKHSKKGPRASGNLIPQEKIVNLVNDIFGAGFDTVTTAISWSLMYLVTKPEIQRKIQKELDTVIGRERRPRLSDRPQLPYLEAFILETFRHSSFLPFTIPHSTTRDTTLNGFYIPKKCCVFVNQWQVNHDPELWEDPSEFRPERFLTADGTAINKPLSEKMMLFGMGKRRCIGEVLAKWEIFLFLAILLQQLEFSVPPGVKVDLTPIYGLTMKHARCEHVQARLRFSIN

HCT-116 [6] = assay: Inhibition of cell invasion human HCT-116 cells incubated for 48 hrs by crystal violet staining based transwell assay; format: functional; conditions: dose 3-12 µM
PaTu 8988t = assay: Antiproliferative activity against human PaTu 8988t cells assessed as reduction in cell viability at 10 uM incubated for 24 to 48 hrs by CCK-8 assay; format: functional, cell-based; conditions: time lower […], time upper 48.0 hrs
5637 = assay: Antiproliferative activity against human 5637 cells assessed as reduction in cell viability at 10 uM incubated for 24 to 48 hrs by CCK-8 assay; format: functional, cell-based; conditions: time lower […], time upper 48.0 hrs
HCT-116 [7] = assay: Antiproliferative activity against human HCT-116 cells assessed as inhibition of colony formation at 3 to 12 uM incubated for 48 hrs by crystal violet staining based assay; format: functional, cell-based; conditions: dose 3-12 µM
[8] = Clearance in Sprague-Dawley rat at 5 mg/kg, iv measured upto 24 hrs by LC-MS analysis; format: ADME, organism-based; conditions: in vivo
[9] = Cmax in Sprague-Dawley rat at 5 mg/kg, iv measured upto 24 hrs by LC-MS analysis; format: ADME, organism-based; conditions: in vivo
HepG2 = assay: Antiproliferative activity against human HepG2 cells assessed as reduction in cell viability at 10 uM incubated for 24 to 48 hrs by CCK-8 assay; format: functional, cell-based; conditions: time lower […], time upper 48.0 hrs
HCT-116 [10] = assay: Induction of cell cycle arrest at G1/G0 phase in human HCT-116 cells assessed as decrease in cyclinD1 expression incubated for 48 hrs by Western blotting analysis; format: functional, cell-based; conditions: dose 3-12 µM
HCT-116 [11] = assay: Induction of cell cycle arrest at G1/G0 phase in human HCT-116 cells assessed as decrease in cyclinE1 expression incubated for 48 hrs by Western blotting analysis; format: functional, cell-based; conditions: dose 3-12 µM
SW-620 = assay: Antiproliferative activity against human SW-620 cells assessed as reduction in cell viability incubated for 24 to 48 hrs by CCK-8 assay; format: functional, cell-based
[12] = MRT (0 to t) in Sprague-Dawley rat at 5 mg/kg, iv measured upto 24 hrs by LC-MS analysis; format: ADME, organism-based; conditions: in vivo
Cytochrome P450 3A4 = Cytochrome P450 3A4 (Homo sapiens, UniProt P08684); assay: Inhibition of CYP3A4 in human liver microsomes using midazolam as substrate pre-incubated for 30 mins followed by substrate addition and measured after 15 mins in presence of NADPH by LC/MS analysis; format: ADME, Microsome
Sequence of Cytochrome P450 3A4 (P08684 whole entry): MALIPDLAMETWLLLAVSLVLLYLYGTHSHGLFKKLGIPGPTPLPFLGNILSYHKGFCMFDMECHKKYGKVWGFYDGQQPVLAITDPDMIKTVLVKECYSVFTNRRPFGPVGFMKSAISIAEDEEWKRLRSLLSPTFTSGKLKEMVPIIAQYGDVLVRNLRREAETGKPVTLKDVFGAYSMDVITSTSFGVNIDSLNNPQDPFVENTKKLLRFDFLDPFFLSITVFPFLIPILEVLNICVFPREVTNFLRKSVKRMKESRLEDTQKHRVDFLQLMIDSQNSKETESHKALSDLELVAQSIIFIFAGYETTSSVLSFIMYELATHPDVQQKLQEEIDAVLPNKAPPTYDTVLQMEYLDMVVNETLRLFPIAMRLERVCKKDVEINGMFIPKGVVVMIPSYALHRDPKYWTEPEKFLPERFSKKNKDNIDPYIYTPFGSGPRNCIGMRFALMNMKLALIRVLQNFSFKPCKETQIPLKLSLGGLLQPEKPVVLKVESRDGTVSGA

HCT-116 [13] = assay: Antiproliferative activity against human HCT-116 cells assessed as inhibition of mTOR phosphorylation incubated for 48 hrs by Western blotting analysis; format: functional, cell-based; conditions: dose 3-12 µM
[14] = Metabolic stability in artificial gastrointestinal fluid assessed as compound remaining measured upto 8 hrs by LC-MS/MS analysis; format: ADME
[15] = target: Serine/threonine-protein kinase mTOR (Homo sapiens, UniProt P42345); assay: Inhibition of mTOR (unknown origin) by lance ultra assay
A-375 = assay: Antiproliferative activity against human A-375 cells assessed as reduction in cell viability at 10 uM incubated for 24 to 48 hrs by CCK-8 assay; format: functional, cell-based; conditions: time lower […], time upper 48.0 hrs
HCT-116 [16] = assay: Induction of cell cycle arrest in human HCT-116 cells assessed as decrease in accumulation of cells at G2/M phase at 3 to 12 uM incubated for 48 hrs by PI staining based flow cytometry analysis (reference value: 16.5 %); format: functional; design: scale not given: the % may be the effect or the level left; conditions: dose 3-12 µM
L02 = assay: Cytotoxicity activity against human L02 cells assessed as reduction in cell viability at 10 uM incubated for 24 to 48 hrs by CCK-8 assay; format: toxicity, cell-based; conditions: l02, 10 µM, time 24-48 hrs
A549 = assay: Antiproliferative activity against human A549 cells assessed as reduction in cell viability at 10 uM incubated for 24 to 48 hrs by CCK-8 assay; format: functional, cell-based; conditions: time lower […], time upper 48.0 hrs
HCT-116 [17] = assay: Induction of cell cycle arrest in human HCT-116 cells assessed as decrease in accumulation of cells at S phase at 3 to 12 uM incubated for 48 hrs by PI staining based flow cytometry analysis (reference value: 46.9 %); format: functional; design: scale not given: the % may be the effect or the level left; conditions: dose 3-12 µM
HCT-116 [18] = assay: Induction of apoptosis in human HCT-116 cells assessed as increased total apoptotic cells at 12 uM incubated for 48 hrs by Annexin V-FITC and propidium iodide staining based flow cytometry analysis (reference value: 4.22 %); format: functional
[19] = tested on: Receptor-type tyrosine-protein kinase FLT3 (Homo sapiens), P36888 [D835Y]; assay: Inhibition of human FLT3 D835Y mutant at 1 uM
786-0 = assay: Antiproliferative activity against human 786-0 cells assessed as reduction in cell viability at 10 uM incubated for 24 to 48 hrs by CCK-8 assay; format: functional, cell-based; conditions: time lower […], time upper 48.0 hrs
A673 = assay: Antiproliferative activity against human A673 cells assessed as reduction in cell viability at 10 uM incubated for 24 to 48 hrs by CCK-8 assay; format: functional, cell-based; conditions: time lower […], time upper 48.0 hrs
[20] = target: Phosphatidylinositol 4,5-bisphosphate 3-kinase catalytic subunit beta isoform (Homo sapiens, UniProt P42338); assay: Inhibition of PI3Kbeta (unknown origin) by ADP-Glo luminescent kinase assay
Sequence of Phosphatidylinositol 4,5-bisphosphate 3-kinase catalytic subunit beta isoform (P42338 whole entry, canonical isoform): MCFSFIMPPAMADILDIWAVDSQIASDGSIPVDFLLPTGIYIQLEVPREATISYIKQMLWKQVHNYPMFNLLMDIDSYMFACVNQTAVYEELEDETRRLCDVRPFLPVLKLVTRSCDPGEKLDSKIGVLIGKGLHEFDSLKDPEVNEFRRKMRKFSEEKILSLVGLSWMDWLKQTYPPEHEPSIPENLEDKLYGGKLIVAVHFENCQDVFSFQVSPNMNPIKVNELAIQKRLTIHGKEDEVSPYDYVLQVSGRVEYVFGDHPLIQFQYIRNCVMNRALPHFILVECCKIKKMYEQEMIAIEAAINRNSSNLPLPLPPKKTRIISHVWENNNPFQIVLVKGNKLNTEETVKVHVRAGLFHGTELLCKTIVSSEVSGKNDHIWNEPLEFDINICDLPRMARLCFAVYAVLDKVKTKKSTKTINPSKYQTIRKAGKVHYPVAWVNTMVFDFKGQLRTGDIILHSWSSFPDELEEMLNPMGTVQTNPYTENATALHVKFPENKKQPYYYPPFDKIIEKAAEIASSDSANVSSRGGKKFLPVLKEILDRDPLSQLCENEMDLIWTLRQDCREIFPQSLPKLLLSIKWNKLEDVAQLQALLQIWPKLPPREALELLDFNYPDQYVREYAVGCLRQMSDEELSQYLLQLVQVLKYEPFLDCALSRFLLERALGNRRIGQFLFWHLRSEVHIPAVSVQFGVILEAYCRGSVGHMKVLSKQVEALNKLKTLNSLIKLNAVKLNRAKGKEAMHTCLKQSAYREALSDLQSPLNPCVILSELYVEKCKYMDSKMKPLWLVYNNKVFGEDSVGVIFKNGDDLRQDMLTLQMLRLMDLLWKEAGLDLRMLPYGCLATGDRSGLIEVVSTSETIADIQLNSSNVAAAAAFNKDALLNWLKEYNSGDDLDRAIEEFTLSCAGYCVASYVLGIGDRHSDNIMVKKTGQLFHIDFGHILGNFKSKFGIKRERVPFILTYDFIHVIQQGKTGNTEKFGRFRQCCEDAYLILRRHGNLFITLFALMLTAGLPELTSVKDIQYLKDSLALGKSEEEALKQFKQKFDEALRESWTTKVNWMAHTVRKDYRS

GBC-SD = assay: Antiproliferative activity against human GBC-SD cells assessed as reduction in cell viability at 10 uM incubated for 24 to 48 hrs by CCK-8 assay; format: functional, cell-based; conditions: time lower […], time upper 48.0 hrs
HCT-116 [21] = assay: Induction of apoptosis in human HCT-116 cells assessed as increase in total apoptotic cells at 3 uM incubated for 48 hrs by Annexin V-FITC and propidium iodide staining based flow cytometry analysis (reference value: 4.22 %); format: functional

inhibition [2]: Active | IC50 [3]: 0.0025 µM | IC50 [4]: 0.2 µM | IC50 (Cytochrome P450 1A2): > 10 µM | clearance [8]: 10 mL/min/kg | Cmax [9]: 6000 ng/mL | IC50 (SW-620): 9.85 µM | MRT last at 24 h [12]: 1.7 h | IC50 (Cytochrome P450 3A4): > 10 µM | Stability [14]: Stable | IC50 [15]: 0.601 µM | inhibition [19]: Active | IC50 [20]: 0.45 µM
SMILES: Nc1nc2cc(-c3ccc4ncc(N5C[C@@H]6OCCO[C@@H]6C5)nc4c3)ccc2o1
Activity (HCT-116 [1]): 43.2% | Activity (HOS): Active | Activity (TE-1): Active | Activity (HCT-116 [5]): Dose-Dependent Effect | Activity (DU-145): Active | Activity (MKN-45): Active | inhibition (HCT-116 [6]): Dose-Dependent Effect | Activity (PaTu 8988t): Active | Activity 5637: Active | Activity (HCT-116 [7]): Active | Activity (HepG2): Active | Activity (HCT-116 [10]): Dose-Dependent Effect | Activity (HCT-116 [11]): Dose-Dependent Effect | Activity (HCT-116 [13]): Dose-Dependent Effect | Activity (A-375): Active | Activity (HCT-116 [16]): 19% | Activity (L02): Toxic | Activity (A549): Active | Activity (HCT-116 [17]): 24.8% | Activity (HCT-116 [18]): 27.03% | Activity (786-0): Active | Activity (A673): Active | Activity (GBC-SD): Active | Activity (HCT-116 [21]): 5.99%
